Assay results: patent US20210300900A1, “OGA INHIBITOR COMPOUNDS” (Janssen Pharmaceutica NV, priority 2018, published 2021)

What was measured:
[1] = molecular target: T1, recombinant human Meningioma Expressed Antigen 5 (MGEA5), also referred to as O-GcNAcase (OGA) (Homo sapiens, UniProt O60502); assay: OGA biochemical assay (inhibition of FM-GlcNAc hydrolysis, fluorescence); conditions: FM-GlcNAc substrate; for Emax: read-out: Enzymatic Emax (%); for IC50: read-out: Enzymatic hOGA, pIC50 (converted)
T1 construct: Full length OGA enzyme was purchased at OnGene (cat #TP322411); purchased OnGene (so in the source)
T1 sequence (O60502 1-916): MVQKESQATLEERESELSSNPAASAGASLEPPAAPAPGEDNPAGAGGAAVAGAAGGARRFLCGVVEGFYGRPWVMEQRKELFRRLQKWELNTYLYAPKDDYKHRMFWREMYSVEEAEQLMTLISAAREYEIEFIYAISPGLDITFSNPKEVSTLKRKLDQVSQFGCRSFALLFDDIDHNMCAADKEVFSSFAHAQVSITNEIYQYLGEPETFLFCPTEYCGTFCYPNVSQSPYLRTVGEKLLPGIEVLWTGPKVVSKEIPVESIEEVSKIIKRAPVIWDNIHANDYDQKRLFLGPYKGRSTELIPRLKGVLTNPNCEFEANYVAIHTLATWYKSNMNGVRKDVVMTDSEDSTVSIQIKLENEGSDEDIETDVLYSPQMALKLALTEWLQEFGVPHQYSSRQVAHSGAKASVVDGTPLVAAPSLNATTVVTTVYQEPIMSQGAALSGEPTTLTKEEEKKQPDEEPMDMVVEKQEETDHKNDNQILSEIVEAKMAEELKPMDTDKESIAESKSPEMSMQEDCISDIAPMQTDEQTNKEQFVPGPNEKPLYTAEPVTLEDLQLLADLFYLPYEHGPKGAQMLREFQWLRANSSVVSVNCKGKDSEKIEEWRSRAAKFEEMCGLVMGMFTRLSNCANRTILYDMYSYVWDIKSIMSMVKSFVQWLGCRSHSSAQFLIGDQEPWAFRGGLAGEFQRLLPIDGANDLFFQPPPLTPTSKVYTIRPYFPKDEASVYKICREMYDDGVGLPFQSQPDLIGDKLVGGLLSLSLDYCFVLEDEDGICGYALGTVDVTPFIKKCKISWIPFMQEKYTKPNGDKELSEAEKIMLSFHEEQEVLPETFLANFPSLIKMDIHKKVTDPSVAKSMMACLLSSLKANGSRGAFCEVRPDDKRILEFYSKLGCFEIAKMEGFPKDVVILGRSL
Text: The assay is based on the inhibition of the hydrolysis of fluorescein mono-β-D-N-Acetyl-Glucosamine (FM-GlcNAc) (Mariappa et al. 2015, Biochem J 470:255) by the recombinant human Meningioma Expressed Antigen 5 (MGEA5), also referred to as O-GcNAcase (OGA). The hydrolysis FM-GlcNAc (Marker Gene technologies, cat #M1485) results in the formation of B-D-N-glucosamineacetate and fluorescein. The fluorescence of the latter can be measured at excitation wavelength 485 nm and emission wavelength 538 nm. An increase in enzyme activity results in an increase in fluorescence signal. Full length OGA enzyme was purchased at OnGene (cat #TP322411). The enzyme was stored in 25 mM Tris.HCl, pH 7.3, 100 mM glycine, 10% glycerol at −20° C. Thiamet G and GlcNAcStatin were tested as reference compounds (Yuzwa et al. 2008 Nature Chemical Biology 4:483; Yuzwa et al. 2012 Nature Chemical Biology 8:393). The assay was performed in 200 mM Citrate/phosphate buffer supplemented with 0.005% Tween-20. 35.6 g Na2HPO4 2H2O (Sigma, #C0759) were dissolved in 1 L water to obtain a 200 mM solution. 19.2 g citric acid (Merck, #1.06580) was dissolved in 1 L water to obtain a 100 mM solution. pH of the sodiumphosphate solution was adjusted with the citric acid solution to 7.2. The buffer to stop the reaction consists of a 500 mM Carbonate buffer, pH 11.0. 734 mg FM-GlcNAc were dissolved in 5.48 mL DMSO to obtain a 250 mM solution and was stored at −20° C. OGA was used at a 2 nM concentration and FM-GlcNAc at a 100 uM final concentration. Dilutions were prepared in assay buffer.
50 nl of a compound dissolved in DMSO was dispensed on Black Proxiplate TM 384 Plus Assay plates (Perkin Elmer, #6008269) and 3 μl fl-OGA enzyme mix added subsequently. Plates were pre-incubated for 60 min at room temperature and then 2 μl FM-GlcNAc substrate mix added. […] Plates were briefly centrifuged for 1 min at 1000 rpm and incubate at room temperature for 6 h. To stop the reaction 5 μl STOP buffer were added and plates centrifuge again 1 min at 1000 rpm. Fluorescence was quantified in the Thermo Scientific Fluoroskan Ascent or the PerkinElmer EnVision with excitation wavelength 485 nm and emission wavelength 538 nm.
For analysis a best-fit curve is fitted by a minimum sum of squares method. From this an IC50 value and Hill coefficient was obtained. High control (no inhibitor) and low control (saturating concentrations of standard inhibitor) were used to define the minimum and maximum values.

[2] = molecular target: T2, OGA (Homo sapiens, UniProt O60502); assay: OGA cellular assay (ICC detection of O-GlcNAcylated proteins in HEK293 cells inducible for P301L mutant human Tau); assay type: cell-based; conditions: 6 hours incubation; for Cellular hOGA; pEC50 / Cellular Emax (%) / EC50: HEK293 cells inducible for P301L mutant human Tau; for Cellular Emax (%) / Emax: maximum = Thiamet G 200 uM; for Emax: HEK293, HEK293 cells inducible for P301L mutant human Tau; for EC50: read-out: Cellular hOGA, pEC50 (converted)
T2 construct: endogenous in cells; host or cells: HEK293 cells inducible for P301L mutant human Tau (isoform 2N4R)
T2 sequence (O60502 1-916): T1 sequence (O60502 1-916)
Procedure: HEK293 cells inducible for P301L mutant human Tau (isoform 2N4R) were established at Janssen. Thiamet-G was used for both plate validation (high control) and as reference compound (reference EC50 assay validation). OGA inhibition is evaluated through the immunocytochemical (ICC) detection of O-GlcNAcylated proteins by the use of a monoclonal antibody (CTD110.6; Cell Signaling, #9875) detecting O-GlcNAcylated residues as previously described (Dorfmueller et al. 2010 Chemistry & biology, 17:1250). Inhibition of OGA will result in an increase of O-GlcNAcylated protein levels resulting in an increased signal in the experiment. Cell nuclei are stained with Hoechst to give a cell culture quality control and a rough estimate of immediate compounds toxicity, if any. ICC pictures are imaged with a Perkin Elmer Opera Phenix plate microscope and quantified with the provided software Perkin Elmer Harmony 4.1.
Cells were propagated in DMEM high Glucose (Sigma, #D5796) following standard procedures. 2 days before the cell assay cells are split, counted and seeded in Poly-D-Lysine (PDL) coated 96-wells (Greiner, #655946) plate at a cell density of 12,000 cells per cm^2 (4,000 cells per well) in 100 μl of Assay Medium (Low Glucose medium is used to reduce basal levels of GlcNAcylation) (Park et al. 2014 The Journal of biological chemistry 289:13519). At the day of compound test medium from assay plates was removed and replenished with 90 μl of fresh Assay Medium. 10 μl of compounds at a 10 fold final concentration were added to the wells. Plates were centrifuged shortly before incubation in the cell incubator for 6 hours. DMSO concentration was set to 0.2%. Medium is discarded by applying vacuum. For staining of cells medium was removed and cells washed once with 100 μl D-PBS (Sigma, #D8537). From next step onwards unless other stated assay volume was always 50 μl and incubation was performed without agitation and at room temperature. Cells were fixed in 50 μl of a 4% paraformaldehyde (PFA, Alpha aesar, #043368) PBS solution for 15 minutes at room temperature. […] Before analysis samples were washed 2 times manually for 5 minutes in ICC base buffer.
Imaging is performed using Perkin Elmer Phenix Opera using a water 20×objective and recording 9 fields per well. Intensity readout at 488 nm is used as a measure of O-GlcNAcylation level of total proteins in wells. To assess potential toxicity of compounds nuclei were counted using the Hoechst staining. IC50-values are calculated using parametric non-linear regression model fitting. As a maximum inhibition Thiamet G at a 200 uM concentration is present on each plate. In addition, a concentration response of Thiamet G is calculated on each plate.

| Enzymatic Emax (%) [1] | Enzymatic hOGA; pIC50 [1] | Cellular hOGA; pEC50 [2] | Cellular Emax (%) [2] | Emax [1] | IC50 [1] | Emax [2] | EC50 [2] | Cellular Emax (%) ([2]; listed as 118) | SMILES |
| --- | --- | --- | --- | --- | --- | --- | --- | --- | --- |
| 104% | 8.91 | 7.44 | 80% | – | – | – | – | – | CC(=O)Nc1cc([C@H](C)N2CCC[C@H](Cc3cc(C)nc(C)c3)C2)n[nH]1 [Product 5] |
| – | – | – | – | 97% | 0.912 µM | 10% | > 1 µM | – | COc1ccc(F)c(C(C)N2CC[C@H](Cc3cc(C)nc(C)c3)C2)n1 (mixture of isomers) [Product 100] |
| – | – | – | – | 101% | 0.0115 µM | 72% | 0.407 µM | – | CNC(=O)c1cncc(C(C)N2CCC[C@H](Cc3cc(C)nc(C)c3)C2)c1 (mixture of isomers) [Product 40] |
| – | – | – | – | 101% | 0.0525 µM | 57% | 0.525 µM | – | CC(=O)Nc1cc(C(C)N2CCC[C@H](Cc3cc(C)nc(C(F)(F)F)c3)C2)n[nH]1 (mixture of isomers) [Product 70] |
| – | – | – | – | 101% | 0.0437 µM | 42% | > 1 µM | – | COCc1cc(C(C)N2CCC[C@H](Cc3cc(C)nc(C)c3)C2)n[nH]1 (stereo partly shown) [Product 19] |
| – | – | – | – | 102% | 0.0646 µM | 30% | > 1 µM | – | CC(=O)Nc1cc(C(C)N2CCCC(Oc3ncc(C)nc3C)C2)n[nH]1 (stereo not shown) [Product 117] |
| – | – | – | – | 100% | 0.174 µM | 11% | > 1 µM | – | CC(=O)Nc1cc(CN2CCC[C@H](Cc3cc(C)nc(C)c3)C2)nn1C [Product 6] |
| – | – | – | – | 99% | 0.0871 µM | – | 0.219 µM | 82% | COc1cc(C[C@H]2CCCN(C(C)c3nc(OC)ccc3F)C2)cc(C)n1 (stereo partly shown) [Product 118] |
| – | – | – | – | 102% | 0.017 µM | 94% | 0.0562 µM | – | COc1ccc(F)c(C(C)N2CCCC(CNc3cc(C)nc(C)c3)C2)n1 (stereo not shown) [Product 86] |
| – | – | – | – | 102% | 0.0123 µM | 79% | 0.117 µM | – | COc1cc(NC[C@H]2CCCN(C(C)c3nc(OC)ccc3F)C2)cc(C)n1 (mixture of isomers) [Product 90] |
| – | – | – | – | 102% | 0.102 µM | 7% | > 1 µM | – | CC(=O)Nc1cc(C(C)N2CCCC(Oc3cc(C)nc(C)c3)C2)n[nH]1 (stereo not shown) [Product 80] |
| – | – | – | – | 104% | 0.0437 µM | 8% | > 1 µM | – | COc1cc(C[C@H]2CCCN(C(C)c3nc(OC)ccc3F)C2)cc(C(F)(F)F)n1 (mixture of isomers) [Product 79] |
| – | – | – | – | 96% | 0.851 µM | 11% | > 1 µM | – | Cc1cc(C[C@H]2CCCN(Cc3cc(C4CC4)[nH]n3)C2)cc(C)n1 [Product 20] |
| – | – | – | – | 99% | 0.0708 µM | 3% | > 1 µM | – | CCC(=O)Nc1cncc(C(C)N2CCC[C@H](Cc3cc(C)nc(C)c3)C2)c1 (mixture of isomers) [Product 38] |
| – | – | – | – | 104% | 0.0135 µM | 23% | > 1 µM | – | COc1ccc(F)c(C(C)N2CCCC(CNc3cc(C)nc(C(F)(F)F)c3)C2)n1 (stereo not shown) [Product 96] |
| – | – | – | – | 101% | 0.038 µM | 53% | 0.933 µM | – | COc1cncc(C(C)N2CCC[C@H](Cc3cc(C)nc(C)c3)C2)c1 (mixture of isomers) [Product 43] |
| 101% | 7.45 | 6.05 | 31% | – | – | – | – | – | CCOc1cc([C@H](C)N2CCC[C@H](Cc3cc(C)nc(C)c3)C2)n[nH]1 [Product 16] |
| – | – | – | – | 14.4% | > 10 µM | – | – | – | COc1cccc(C(C)N2CC[C@H](Cc3cccc(C(F)(F)F)n3)C2)n1 (mixture of isomers) [Product 147] |
| – | – | – | – | 98% | 0.49 µM | – | – | – | CC(=O)Nc1nc(CN2CCC[C@H](Cc3cc(C)nc(C)c3)C2)c[nH]1 [Product 135] |
| – | – | – | – | – | > 10 µM | – | – | – | CC(=O)Nc1ncc(CN2CCC[C@H](Cc3cc(C)nc(C)c3)C2)n1C [Product 159] |
| 29% | <5 | – | – | – | – | – | – | – | COc1cccc([C@H](C)N2CCC[C@H](CNc3cc(C)nc(C(F)(F)F)c3)C2)n1 [Product 93] |
| – | – | – | – | 84% | 2.29 µM | – | – | – | Cc1cc(C[C@H]2CCCN(C(C)c3cccc(C(F)(F)F)n3)C2)cc(C)n1 (mixture of isomers) [Product 61] |
| – | – | – | – | 98% | 0.229 µM | – | – | – | COc1ccc(C(C)N2CCC[C@H](Cc3cc(C)nc(C)c3)C2)cn1 (mixture of isomers) [Product 52] |
